Laboratory results taken from the supplement of paper PMC10307832.

Columns and labels:
Assay in all cases: relative viability (nuclei count vs DMSO), 5 days (fraction); higher = more cells survive
[1] = compound: C1=CC=C2C(=C1)C=CC(=C2SSC3=C(C=CC4=CC=CC=C43)O)O [IPA-3] + CC(C)C[C@H](NC(=O)[C@H](Cc1ccccc1)NC(=O)c1cnccn1)B(O)O [Bortezomib] (partner 0.002 µM)
How it was run: (§1)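 Lung cancer cell lines, seeded in 1536-well plates, were treated the following day by pin tool with a single drug or with five library-drug doses (not always all listed) in √10 steps on top of a fixed anchor-drug dose. Cells were fixed and nuclei stained in one step after 5 days, and nuclei were counted. Relative viability is the nuclei count for treated wells divided by that for vehicle wells, reported as medians of duplicate plates.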

[2] = compound: C1=CC=C2C(=C1)C=CC(=C2SSC3=C(C=CC4=CC=CC=C43)O)O [IPA-3] + Cc1cc(Nc2cc(N3CCN(C)CC3)nc(Sc3ccc(NC(=O)C4CC4)cc3)n2)n[nH]1 [Tozasertib] (partner 0.1 µM)
How it was run: as §1

[3] = compound: Cc1ccc(-n2nc(C(C)(C)C)cc2NC(=O)Nc2ccc(OCCN3CCOCC3)c3ccccc23)cc1 [Doramapimod] + N=C(N)NC(=N)NCCc1ccccc1 [Phenformin] (partner 250 µM)
How it was run: as §1

[4] = compound: Cc1ccc(-n2nc(C(C)(C)C)cc2NC(=O)Nc2ccc(OCCN3CCOCC3)c3ccccc23)cc1 [Doramapimod] + Nc1ncn([C@H]2C[C@H](O)[C@@H](CO)O2)c(=O)n1 [Decitabine] (partner 2 µM)
How it was run: as §1

| Cell Line | relative viability ([1]; first compound 0.2 µM) | relative viability ([1]; first compound 0.6325 µM) | relative viability ([1]; first compound 2 µM) | relative viability ([1]; first compound 6.325 µM) | relative viability ([1]; first compound 20 µM) | relative viability ([2]; first compound 0.2 µM) | relative viability ([2]; first compound 0.6325 µM) | relative viability ([2]; first compound 2 µM) | relative viability ([2]; first compound 6.325 µM) | relative viability ([2]; first compound 20 µM) | relative viability ([3]; first compound 0.02 µM) | relative viability ([3]; first compound 0.06325 µM) | relative viability ([3]; first compound 0.2 µM) | relative viability ([3]; first compound 0.6325 µM) | relative viability ([3]; first compound 2 µM) | relative viability ([4]; first compound 0.02 µM) | relative viability ([4]; first compound 0.06325 µM) | relative viability ([4]; first compound 0.2 µM) | relative viability ([4]; first compound 0.6325 µM) | relative viability ([4]; first compound 2 µM) |
| --- | --- | --- | --- | --- | --- | --- | --- | --- | --- | --- | --- | --- | --- | --- | --- | --- | --- | --- | --- | --- |
| HCC-78 | 0.624 | 0.359 | 0.555 | 0.479 | 0.675 | 0.508 | 0.429 | 0.448 | 0.402 | 0.398 | 0.704 | 0.819 | 0.743 | 0.813 | 0.543 | 0.753 | 0.794 | 0.635 | 0.609 | 0.624 |
| HCC-366 | 1.36 | 0.996 | 1.04 | 1.08 | 1.25 | 0.176 | 0.132 | 0.0972 | 0.141 | 0.0773 | 0.623 | 0.605 | 0.671 | 0.635 | 0.547 | 0.373 | 0.276 | 0.315 | 0.37 | 0.28 |
| HCC-827 | 1.1 | 0.936 | 1.01 | 0.996 | 1 | 0.446 | 0.423 | 0.402 | 0.442 | 0.438 | 0.418 | 0.416 | 0.376 | 0.432 | 0.286 | 0.34 | 0.38 | 0.326 | 0.243 | 0.211 |
| HOP-62 | 1.09 | 0.858 | 0.722 | 0.701 | 0.93 | 0.388 | 0.312 | 0.395 | 0.382 | 0.402 | 0.685 | 0.706 | 0.753 | 0.682 | 0.646 | 0.267 | 0.268 | 0.176 | 0.208 | 0.211 |
| IA-LM | 0.883 | 0.808 | 0.842 | 0.703 | 0.546 |  |  |  |  |  |  |  |  |  |  |  |  |  |  |  |
| LC-2-ad | 1 | 0.974 | 1.05 | 0.983 | 0.998 | 0.48 | 0.467 | 0.531 | 0.424 | 0.458 | 0.571 | 0.619 | 0.641 | 0.517 | 0.487 | 0.828 | 0.776 | 0.793 | 0.854 | 0.768 |
| LK-2 |  |  |  |  |  | 0.168 | 0.192 | 0.176 | 0.142 | 0.155 | 0.278 | 0.332 | 0.382 | 0.282 | 0.246 | 0.294 | 0.288 | 0.25 | 0.232 | 0.266 |
| NCI-H358 |  |  |  |  |  | 0.107 | 0.0935 | 0.11 | 0.0943 | 0.119 | 0.301 | 0.314 | 0.305 | 0.385 | 0.356 | 0.209 | 0.203 | 0.197 | 0.232 | 0.205 |
| NCI-H522 |  |  |  |  |  | 0.596 | 0.535 | 0.72 | 0.621 | 0.565 | 0.6 | 0.573 | 0.621 | 0.677 | 0.603 | 0.751 | 0.7 | 0.626 | 0.683 | 0.577 |
| NCI-H1299 | 0.995 | 1.01 | 0.996 | 0.996 | 1 |  |  |  |  |  |  |  |  |  |  |  |  |  |  |  |
| NCI-H1395 |  |  |  |  |  | 0.732 | 0.761 | 0.72 | 0.733 | 0.8 | 0.483 | 0.474 | 0.44 | 0.485 | 0.365 | 0.745 | 0.722 | 0.71 | 0.682 | 0.64 |
| NCI-H1563 | 1.03 | 0.689 | 0.801 | 0.996 | 0.846 |  |  |  |  |  | 0.653 | 0.682 | 0.653 | 0.806 | 0.739 |  |  |  |  |  |
| NCI-H1623 |  |  |  |  |  | 0.418 | 0.433 | 0.432 | 0.47 | 0.433 | 0.635 | 0.636 | 0.57 | 0.354 | 0.544 |  |  |  |  |  |
| NCI-H1648 |  |  |  |  |  | 0.753 | 0.545 | 0.646 | 0.391 | 0.482 |  |  |  |  |  | 0.465 | 0.544 | 0.452 | 0.402 | 0.389 |
| NCI-H1703 | 0.265 | 0.288 | 0.463 | 0.579 | 0.445 |  |  |  |  |  |  |  |  |  |  |  |  |  |  |  |
| NCI-H1792 | 1.1 | 0.928 | 1.08 | 0.895 | 1.16 |  |  |  |  |  | 0.389 | 0.381 | 0.217 | 0.476 | 0.214 | 0.462 | 0.532 | 0.505 | 0.571 | 0.47 |
| NCI-H1793 |  |  |  |  |  | 0.316 | 0.271 | 0.368 | 0.377 | 0.425 | 0.365 | 0.346 | 0.346 | 0.381 | 0.256 | 0.523 | 0.449 | 0.526 | 0.483 | 0.392 |
| NCI-H1944 |  |  |  |  |  | 0.263 | 0.268 | 0.264 | 0.246 | 0.26 | 0.181 | 0.201 | 0.196 | 0.227 | 0.166 | 0.459 | 0.491 | 0.447 | 0.423 | 0.414 |
| NCI-H2170 |  |  |  |  |  | 0.822 | 0.777 | 0.675 | 0.644 | 0.769 | 0.418 | 0.403 | 0.474 | 0.368 | 0.426 | 0.472 | 0.459 | 0.483 | 0.518 | 0.469 |
| NCI-H2228 | 1.24 | 1.04 | 1.07 | 1.15 | 0.855 | 0.245 | 0.255 | 0.29 | 0.301 | 0.294 | 0.249 | 0.385 | 0.273 | 0.333 | 0.27 |  |  |  |  |  |
| NCI-H2342 |  |  |  |  |  | 0.526 | 0.505 | 0.6 | 0.57 | 0.596 | 0.617 | 0.594 | 0.593 | 0.704 | 0.497 | 0.653 | 0.807 | 0.686 | 0.673 | 0.74 |
| SK-MES-1 |  |  |  |  |  | 0.991 | 0.775 | 0.933 | 0.804 | 0.694 | 0.634 | 0.648 | 0.648 | 0.628 | 0.568 | 0.329 | 0.355 | 0.356 | 0.424 | 0.315 |
| SW 900 |  |  |  |  |  | 0.56 | 0.53 | 0.496 | 0.566 | 0.56 | 0.612 | 0.665 | 0.676 | 0.76 | 0.635 | 0.355 | 0.439 | 0.36 | 0.405 | 0.437 |
